Experimental data reported in patent US9403823B2, “Protein kinase inhibitors” (ORIBASE PHARMA, priority 2012, dated 2016).
Where two headings read alike, the source gives them in different places. Marks after values point to notes of the source that are not given here.

How the values were obtained:
BRAF = target: T1, BRAF (Homo sapiens, UniProt P15056); assay: In vitro kinase assay (Z'-LYTE), BRAF; assay type: biochemical; details: read-out: % of inhibition of the kinase compared to the control
T1 construct: purchased Invitrogen
Summary of the method: (§1)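 FRET-based Z'-LYTE coupled-enzyme assay: kinase phosphorylates a dual-fluorophore peptide, unphosphorylated peptide is protease-cleaved, and donor/acceptor emission ratio after 400 nm excitation quantifies progress. Buffer 50 mM HEPES pH 7.5, 10 mM MgCl2, 1 mM EGTA, 0.01% BRIJ-35; 1% DMSO final. Single compound concentration: 100 nM, or 10 μM for ABL and ABL T315I.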

EGFR (ErbB1) = target: T2, EGFR (ErbB1) (Homo sapiens, UniProt P00533); assay: In vitro kinase assay (Z'-LYTE), EGFR (ErbB1); assay type: biochemical; details: read-out: % of inhibition of the kinase compared to the control
T2 construct: purchased Invitrogen
Summary of the method: as §1

EGFR (ErbB1) T790M L858R = target: T3, EGFR (ErbB1) T790M L858R (Homo sapiens, UniProt P00533, L858R/T790M); assay: In vitro kinase assay (Z'-LYTE), EGFR (ErbB1) T790M L858R; assay type: biochemical; details: read-out: % of inhibition of the kinase compared to the control
T3 construct: purchased Invitrogen
Summary of the method: as §1

FGFR2 = target: T4, FGFR2 (Homo sapiens, UniProt P21802); assay: In vitro kinase assay (Z'-LYTE), FGFR2; assay type: biochemical; details: read-out: % of inhibition of the kinase compared to the control
T4 construct: purchased Invitrogen
Summary of the method: as §1

KDR (VEGFR2) = target: T5, KDR (VEGFR2) (Homo sapiens, UniProt P35968); assay: In vitro kinase assay (Z'-LYTE), KDR (VEGFR2); assay type: biochemical; details: read-out: % of inhibition of the kinase compared to the control
T5 construct: purchased Invitrogen
Summary of the method: as §1

PDGFRA (PDGFR alpha) = target: T6, PDGFRA (PDGFR alpha) (Homo sapiens, UniProt P16234); assay: In vitro kinase assay (Z'-LYTE), PDGFRA; assay type: biochemical; details: read-out: % of inhibition of the kinase compared to the control
T6 construct: purchased Invitrogen
Summary of the method: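 Inhibition read as emission ratio (donor/acceptor, 400 nm excitation) of a FRET-labelled peptide, phosphorylation protecting it from proteolytic cleavage. Compounds tested once at 100 nM for VEGFR1 and PDGFRA, at 10 μM for ABL and ABL T315I, 1% DMSO final. ATP at previously determined apparent Km.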

SRC = target: T7, SRC (Homo sapiens, UniProt P12931); assay: In vitro kinase assay (Z'-LYTE), SRC; assay type: biochemical; details: read-out: % of inhibition of the kinase compared to the control
T7 construct: purchased Invitrogen
Summary of the method: as §1

ABL = target: T8, ABL (Homo sapiens, UniProt P00519); assay: In vitro kinase assay (Z'-LYTE), ABL; assay type: biochemical; details: read-out: % of inhibition of the kinase compared to the control
T8 construct: purchased Invitrogen
Protocol: (§2) 1) In Vitro Kinase Assays (Table 10 to Table 21)
(§3) The inhibitory activity of the compounds on several kinases including BRAF, EGFR (ErbB1), EGFR (ErbB1) T790M L858R, FGFR2, KDR (VEGFR2), PDGFRA (PDGFR alpha), SRC and other was evaluated by Invitrogen using the Z′-LYTE® technology. Briefly, the Z′-LYTE® biochemical assay employs a fluorescence-based, coupled-enzyme format and is based on the differential sensitivity of phosphorylated and non-phosphorylated peptides to proteolytic cleavage. The peptide substrate is labeled with two fluorophores—one at each end—that make up a FRET pair. A ratiometric method, which calculates the ratio (the Emission Ratio) of donor emission to acceptor emission after excitation of the donor fluorophore at 400 nm, is used to quantitate reaction progress.
(§4) The compounds are screened in 1% DMSO (final) in the well. For 10 point titrations, 3-fold serial dilutions are conducted from the starting concentration. All Peptide/Kinase Mixtures are diluted to a 2× working concentration in the appropriate Kinase Buffer. All ATP Solutions are diluted to a 4× working concentration in Kinase Buffer (50 mM HEPES pH 7.5, 0.01% BRIJ-35, 10 mM MgCl2, 1 mM EGTA). ATP Km apparent is previously determined using a Z′-LYTE® assay.
(§5) Each compound was incubated at a concentration of 100 nM (excepted to test the activity against ABL and ABL T315I for which the compounds were incubated at a concentration of 10 μM) and the tables 10 to 21 summarize the results obtained showing the inhibitory power of a compound.

ABL T315I = target: T9, ABL T315I (Homo sapiens, UniProt P00519, T315I); assay: In vitro kinase assay (Z'-LYTE), ABL T315I; assay type: biochemical; details: read-out: % of inhibition of the kinase compared to the control
T9 construct: purchased Invitrogen
Protocol: as §2, §3, §4, §5

A549 cell line = assay: In vitro cell proliferation assay (MTT), A549; assay type: cell-based; details: Homo sapiens, read-out: EC50, anti-proliferative activity
Summary of the method: (§6)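 Cancer cell lines were seeded at 5×10^3 cells per well and HRMEC at 1×10^4 cells per well, then incubated in duplicate with escalating compound concentrations (10 nM to 3 μM) for 72 hr. Proliferation was read by MTT.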

HepG2 cell line = assay: In vitro cell proliferation assay (MTT), HepG2; assay type: cell-based; details: Homo sapiens, read-out: EC50, anti-proliferative activity
Summary of the method: as §6

HT29 cell line = assay: In vitro cell proliferation assay (MTT), HT29; assay type: cell-based; details: Homo sapiens, read-out: EC50, anti-proliferative activity
Protocol: (§7) 2) In Vitro Cell Proliferation Assays (Table 22 to Table 35)
(§8) Cancer cell lines (5×10^3 cells per well) or HUVEC (1×10^4 cells per well) or HRMEC (1×10^4 cells per well) were distributed in 96-well plates and incubating in duplicate with escalating concentrations (10 nM to 3 μM) of compounds for 72 hr. Cell proliferation was measured using MTT (3[4,5-dimethylthiazol-2-yl]-2,5-diphenyltetrazolium bromide).

BxPC-3 cell line = assay: In vitro cell proliferation assay (MTT), BxPC-3; assay type: cell-based; details: Homo sapiens, read-out: EC50, anti-proliferative activity
Protocol: as §7, §8

H1975 cell line = assay: In vitro cell proliferation assay (MTT), H1975; assay type: cell-based; details: Homo sapiens, read-out: EC50, anti-proliferative activity
Protocol: as §7, §8

HuCCT1 cell line = assay: In vitro cell proliferation assay (MTT), HuCCT1; assay type: cell-based; details: Homo sapiens, HuCCT-1, 72 h; read-out: EC50, anti-proliferative activity
Protocol: as §7, §8

HuH6 Clone 5 cell line = assay: In vitro cell proliferation assay (MTT), HuH6 Clone 5; assay type: cell-based; details: HUH-6-clone5, 72 h; read-out: EC50, anti-proliferative activity
Protocol: as §7, §8

HuH7 cell line = assay: In vitro cell proliferation assay (MTT), HuH7; assay type: cell-based; details: Homo sapiens, Huh-7, 72 h; read-out: EC50, anti-proliferative activity
Protocol: as §7, §8

HUVEC = assay: In vitro cell proliferation assay (MTT), HUVEC; assay type: cell-based; details: Homo sapiens, 72 h, read-out: EC50, anti-proliferative activity
Summary of the method: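 HUVEC cells were plated at 1×10^4 cells per well in 96-well plates and exposed in duplicate to increasing compound concentrations from 10 nM to 3 μM for 72 hr. Proliferation was then quantified with MTT (3[4,5-dimethylthiazol-2-yl]-2,5-diphenyltetrazolium bromide) to determine anti-proliferative activity.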

MDA-MB-231 cell line = assay: In vitro cell proliferation assay (MTT), MDA-MB-231; assay type: cell-based; details: Homo sapiens, MDA-MB-231, 72 h; read-out: EC50, anti-proliferative activity
Summary of the method: as §6

HeLa cell line = assay: In vitro cell proliferation assay (MTT), HeLa; assay type: cell-based; details: Homo sapiens, 72 h, read-out: EC50, anti-proliferative activity
Summary of the method: as §6

HRMEC cells = assay: In vitro cell proliferation assay (MTT), HRMEC; assay type: cell-based; details: 72 h, read-out: EC50, anti-proliferative activity
Protocol: as §7, §8

PC3 cell line = assay: In vitro cell proliferation assay (MTT), PC3; assay type: cell-based; details: Homo sapiens, PC-3, 72 h; read-out: EC50, anti-proliferative activity
Protocol: as §7, §8

Caki-2 = assay: In vitro cell proliferation assay (MTT), Caki-2; assay type: cell-based; details: Homo sapiens, CAKI-2, 72 h; read-out: EC50, anti-proliferative activity
Protocol: as §7, §8

HepG2 cells = assay: Human hepatocellular carcinoma mouse model (HepG2 xenograft); assay type: in vivo, athymic nude male mice; details: 20 mg/kg q.d. per os for 15 consecutive days
Protocol: 3) In Vivo Studies (Table 36)
Human hepatocellular carcinoma mouse model was prepared by subcutaneously implanting HepG2 cells (1×10^7 cell/mL in sterile PBS), into the right flank of athymic nude male mice (HSD, 6-7 weeks old). When the tumor volume reached approximately 200 mm^3, mice were assigned randomly to either vehicle alone or ORB compounds treatment groups (six mice per group). Mice were treated with either vehicle (PEG400) or OR0720, OR0721, OR0811 (20 mg/kg q.d.; per os for 15 consecutive days).
Tumor volumes in mm^3 were determined three times a week with a digital caliper and calculated using the following formula: Tumor Volume (mm)=length (mm)×width (mm)×width (mm)×½. Body weight was measured three times a week, and mice were observed daily for monitoring signs of stress to detect possible toxicities. One-way ANOVA was used for statistical comparisons. Data were analyzed with Prism 5.0 b (GraphPad Software) by one-way ANOVA with Bonferroni post hoc. Tumor Growth Inhibition (TGI) is calculated as the percent decrease of tumor growth at the end of the study in the ORB compounds treatment groups in comparison to the vehicle alone treatment group.

T4 sequence (P21802 22-821): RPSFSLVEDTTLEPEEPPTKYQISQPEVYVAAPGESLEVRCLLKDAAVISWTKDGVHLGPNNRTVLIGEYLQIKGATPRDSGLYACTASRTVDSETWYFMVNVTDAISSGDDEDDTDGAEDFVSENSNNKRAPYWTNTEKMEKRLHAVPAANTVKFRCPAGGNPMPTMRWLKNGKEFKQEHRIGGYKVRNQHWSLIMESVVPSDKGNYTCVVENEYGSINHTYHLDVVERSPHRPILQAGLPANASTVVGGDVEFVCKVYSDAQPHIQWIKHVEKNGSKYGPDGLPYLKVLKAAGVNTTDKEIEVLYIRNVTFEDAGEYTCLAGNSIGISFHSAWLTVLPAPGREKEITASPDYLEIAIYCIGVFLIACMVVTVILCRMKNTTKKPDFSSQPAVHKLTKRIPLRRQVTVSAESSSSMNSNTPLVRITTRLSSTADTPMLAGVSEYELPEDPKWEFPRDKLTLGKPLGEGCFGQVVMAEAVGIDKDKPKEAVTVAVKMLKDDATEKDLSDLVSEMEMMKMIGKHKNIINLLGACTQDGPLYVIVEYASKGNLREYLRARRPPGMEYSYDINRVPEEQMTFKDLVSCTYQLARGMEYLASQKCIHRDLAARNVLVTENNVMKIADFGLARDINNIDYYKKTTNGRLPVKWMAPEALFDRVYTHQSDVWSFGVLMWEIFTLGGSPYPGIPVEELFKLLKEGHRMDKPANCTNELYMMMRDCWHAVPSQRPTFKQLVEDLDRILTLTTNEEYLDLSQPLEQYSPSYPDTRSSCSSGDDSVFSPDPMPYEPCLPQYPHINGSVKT
T2 sequence (P00533 25-1210): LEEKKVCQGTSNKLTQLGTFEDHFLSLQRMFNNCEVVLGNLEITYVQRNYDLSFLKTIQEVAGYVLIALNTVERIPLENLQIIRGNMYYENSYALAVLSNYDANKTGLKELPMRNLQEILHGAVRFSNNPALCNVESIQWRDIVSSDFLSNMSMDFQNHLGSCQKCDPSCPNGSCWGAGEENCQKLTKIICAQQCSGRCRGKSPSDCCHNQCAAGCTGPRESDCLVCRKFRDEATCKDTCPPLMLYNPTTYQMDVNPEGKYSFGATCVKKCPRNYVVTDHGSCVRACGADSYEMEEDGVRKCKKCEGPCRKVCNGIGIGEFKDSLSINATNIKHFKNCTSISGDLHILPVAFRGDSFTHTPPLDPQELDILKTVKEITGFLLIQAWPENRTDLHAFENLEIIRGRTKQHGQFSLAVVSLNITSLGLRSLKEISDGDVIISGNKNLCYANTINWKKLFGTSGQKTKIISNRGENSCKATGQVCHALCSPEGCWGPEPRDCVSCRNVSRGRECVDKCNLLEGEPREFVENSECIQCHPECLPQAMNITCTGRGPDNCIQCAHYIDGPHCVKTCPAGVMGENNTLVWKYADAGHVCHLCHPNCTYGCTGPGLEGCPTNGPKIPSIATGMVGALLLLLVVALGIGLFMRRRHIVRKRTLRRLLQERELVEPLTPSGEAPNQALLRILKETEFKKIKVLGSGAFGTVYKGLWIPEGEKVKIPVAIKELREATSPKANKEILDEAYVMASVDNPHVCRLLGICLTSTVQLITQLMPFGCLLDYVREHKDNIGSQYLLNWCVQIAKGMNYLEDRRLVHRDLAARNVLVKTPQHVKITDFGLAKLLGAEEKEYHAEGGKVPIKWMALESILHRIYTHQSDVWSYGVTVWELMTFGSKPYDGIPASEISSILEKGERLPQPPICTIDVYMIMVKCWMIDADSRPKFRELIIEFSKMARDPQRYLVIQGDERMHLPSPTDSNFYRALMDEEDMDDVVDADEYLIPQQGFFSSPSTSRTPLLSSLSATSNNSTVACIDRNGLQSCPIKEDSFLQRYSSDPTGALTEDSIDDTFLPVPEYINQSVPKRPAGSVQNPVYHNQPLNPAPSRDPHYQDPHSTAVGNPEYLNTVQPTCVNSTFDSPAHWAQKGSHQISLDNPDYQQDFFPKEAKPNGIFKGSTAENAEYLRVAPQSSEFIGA
T1 sequence (P15056 whole entry): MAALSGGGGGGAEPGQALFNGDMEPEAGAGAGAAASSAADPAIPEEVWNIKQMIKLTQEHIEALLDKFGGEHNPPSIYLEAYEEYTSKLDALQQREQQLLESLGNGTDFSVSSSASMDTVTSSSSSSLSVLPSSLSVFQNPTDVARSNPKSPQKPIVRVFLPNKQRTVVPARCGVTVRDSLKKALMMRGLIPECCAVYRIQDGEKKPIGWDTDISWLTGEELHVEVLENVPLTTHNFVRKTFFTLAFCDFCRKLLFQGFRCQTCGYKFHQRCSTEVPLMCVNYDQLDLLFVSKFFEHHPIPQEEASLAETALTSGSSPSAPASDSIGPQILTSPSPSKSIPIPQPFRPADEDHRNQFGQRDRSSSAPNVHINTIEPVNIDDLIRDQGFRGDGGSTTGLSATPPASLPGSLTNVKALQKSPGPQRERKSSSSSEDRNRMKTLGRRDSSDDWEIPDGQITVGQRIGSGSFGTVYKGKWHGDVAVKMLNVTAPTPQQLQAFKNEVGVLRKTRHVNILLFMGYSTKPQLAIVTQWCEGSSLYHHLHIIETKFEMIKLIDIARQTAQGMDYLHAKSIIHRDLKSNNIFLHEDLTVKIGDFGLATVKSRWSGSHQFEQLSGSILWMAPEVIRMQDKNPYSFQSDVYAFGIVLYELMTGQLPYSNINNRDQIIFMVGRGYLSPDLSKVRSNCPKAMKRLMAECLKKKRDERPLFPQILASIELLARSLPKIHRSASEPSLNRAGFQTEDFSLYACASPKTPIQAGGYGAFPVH
T5 sequence (P35968 20-1356): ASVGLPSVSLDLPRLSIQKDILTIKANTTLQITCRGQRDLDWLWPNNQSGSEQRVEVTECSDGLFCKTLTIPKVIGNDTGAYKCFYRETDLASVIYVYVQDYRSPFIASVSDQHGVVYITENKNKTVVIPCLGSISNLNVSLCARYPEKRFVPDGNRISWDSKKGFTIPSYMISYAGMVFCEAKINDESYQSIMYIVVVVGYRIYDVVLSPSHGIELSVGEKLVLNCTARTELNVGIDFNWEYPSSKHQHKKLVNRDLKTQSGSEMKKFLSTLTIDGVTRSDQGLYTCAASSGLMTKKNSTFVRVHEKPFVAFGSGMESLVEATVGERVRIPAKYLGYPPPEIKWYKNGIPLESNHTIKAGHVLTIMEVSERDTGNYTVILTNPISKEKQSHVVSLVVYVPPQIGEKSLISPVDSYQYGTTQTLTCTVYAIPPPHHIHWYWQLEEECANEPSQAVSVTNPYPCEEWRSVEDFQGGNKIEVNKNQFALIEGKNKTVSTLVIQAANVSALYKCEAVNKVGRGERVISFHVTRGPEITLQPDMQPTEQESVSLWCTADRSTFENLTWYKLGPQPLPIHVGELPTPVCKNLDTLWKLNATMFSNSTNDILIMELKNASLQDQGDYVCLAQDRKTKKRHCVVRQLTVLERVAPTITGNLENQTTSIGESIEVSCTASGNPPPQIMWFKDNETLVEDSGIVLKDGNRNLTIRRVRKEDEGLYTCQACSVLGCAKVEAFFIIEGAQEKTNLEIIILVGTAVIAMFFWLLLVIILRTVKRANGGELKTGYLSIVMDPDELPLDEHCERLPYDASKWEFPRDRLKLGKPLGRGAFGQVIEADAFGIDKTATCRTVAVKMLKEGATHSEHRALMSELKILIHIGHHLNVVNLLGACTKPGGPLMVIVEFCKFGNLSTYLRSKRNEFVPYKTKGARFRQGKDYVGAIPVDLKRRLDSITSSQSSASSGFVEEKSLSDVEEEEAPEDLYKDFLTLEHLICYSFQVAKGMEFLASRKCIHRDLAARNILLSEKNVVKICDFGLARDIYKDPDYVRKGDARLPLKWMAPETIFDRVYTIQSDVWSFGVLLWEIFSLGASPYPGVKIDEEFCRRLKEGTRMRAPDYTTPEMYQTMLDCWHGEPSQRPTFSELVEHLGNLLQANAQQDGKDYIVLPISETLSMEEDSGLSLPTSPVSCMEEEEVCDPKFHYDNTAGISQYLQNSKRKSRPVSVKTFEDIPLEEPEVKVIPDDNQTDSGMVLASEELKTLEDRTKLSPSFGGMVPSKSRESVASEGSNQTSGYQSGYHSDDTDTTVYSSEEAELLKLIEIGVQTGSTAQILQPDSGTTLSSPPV
T7 sequence (P12931 whole entry): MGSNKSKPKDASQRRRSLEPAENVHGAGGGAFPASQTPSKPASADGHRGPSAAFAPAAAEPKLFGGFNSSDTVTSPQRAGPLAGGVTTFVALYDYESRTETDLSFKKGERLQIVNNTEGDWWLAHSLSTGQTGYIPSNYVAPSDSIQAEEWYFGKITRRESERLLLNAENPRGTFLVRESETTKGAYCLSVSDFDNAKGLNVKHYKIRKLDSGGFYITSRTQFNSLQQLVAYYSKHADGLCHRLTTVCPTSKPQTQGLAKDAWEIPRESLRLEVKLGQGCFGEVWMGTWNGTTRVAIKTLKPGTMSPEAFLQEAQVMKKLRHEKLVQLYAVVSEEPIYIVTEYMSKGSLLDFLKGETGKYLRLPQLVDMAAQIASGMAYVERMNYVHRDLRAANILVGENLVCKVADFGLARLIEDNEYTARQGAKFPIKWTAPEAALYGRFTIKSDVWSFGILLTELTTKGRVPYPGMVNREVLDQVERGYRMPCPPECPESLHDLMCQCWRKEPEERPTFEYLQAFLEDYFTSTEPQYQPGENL

## Cc1ccc(NC(=O)c2ccc(CN3CCC(N(C)C)C3)c(C(F)(F)F)c2)cc1CNc1cnc2[nH]c(C(=O)O)cc2c1 (centres unmarked) [OR0528, 5-{5-[4-(3-Dimethylamino-pyrrolidin-1-ylmethyl)-3-trifluoromethyl-benzoylamino]-2-methyl-benzylamino}-1H-pyrrolo[2,3-b]pyridine-2-carboxylic acid]
BRAF
  inhibition at 0.1 µM: < 50%
EGFR (ErbB1)
  inhibition at 0.1 µM: ≥ 50%
EGFR (ErbB1) T790M L858R
  inhibition at 0.1 µM: ≥ 50%
FGFR2
  inhibition at 0.1 µM: ≥ 50%
KDR (VEGFR2)
  inhibition at 0.1 µM: ≥ 50%
PDGFRA (PDGFR alpha)
  inhibition at 0.1 µM: ≥ 50%
SRC
  inhibition at 0.1 µM: ≥ 50%
ABL
  inhibition at 10 µM: ≥ 50%
ABL T315I
  inhibition at 10 µM: ≥ 50%
A549 cell line; A549, 72 hr, MTT
  EC50: ≥ 1000 nM
HepG2 cell line; HepG2, 72 hr, MTT
  EC50: ≥ 1000 nM
HT29 cell line; HT-29, HT29, 72 hr, MTT
  EC50: ≥ 1000 nM
BxPC-3 cell line; BxPC-3, 72 hr, MTT
  EC50: ≥ 1000 nM
H1975 cell line; NCI-H1975, H1975, 72 hr, MTT
  EC50: ≥ 1000 nM

## CC(=O)c1cc2cc(NCc3cc(NC(=O)c4ccc(CN5CCC(N(C)C)C5)c(C(F)(F)F)c4)ccc3C)cnc2[nH]1 (centres unmarked) [OR0718, N-{3-[(2-Acetyl-1H-pyrrolo[2,3-b]pyridin-5-ylamino)-methyl]-4-methyl-phenyl}-4-(3-dimethylamino-pyrrolidin-1-ylmethyl)-3-trifluoromethyl-benzamide]
BRAF
  inhibition at 0.1 µM: ≥ 50%
EGFR (ErbB1)
  inhibition at 0.1 µM: ≥ 50%
EGFR (ErbB1) T790M L858R
  inhibition at 0.1 µM: ≥ 50%
FGFR2
  inhibition at 0.1 µM: ≥ 50%
KDR (VEGFR2)
  inhibition at 0.1 µM: ≥ 50%
PDGFRA (PDGFR alpha)
  inhibition at 0.1 µM: ≥ 50%
SRC
  inhibition at 0.1 µM: ≥ 50%
A549 cell line; A549, 72 h
  EC50: 100 to 1000 nM
HepG2 cell line; HepG2, 72 h
  EC50: 100 to 1000 nM
HuCCT1 cell line
  EC50: 100 to 1000 nM
HuH6 Clone 5 cell line
  EC50: 100 to 1000 nM
HuH7 cell line
  EC50: 100 to 1000 nM
HT29 cell line; HT-29, 72 h
  EC50: 100 to 1000 nM
BxPC-3 cell line; BXPC-3, 72 h
  EC50: ≤ 100 nM
H1975 cell line; NCI-H1975, 72 h
  EC50: 100 to 1000 nM
HUVEC
  EC50: ≤ 100 nM
MDA-MB-231 cell line
  EC50: ≤ 100 nM
HeLa cell line
  EC50: 100 to 1000 nM
HRMEC cells
  EC50: 100 to 1000 nM

## CC(=O)c1cc2cc(NCc3cc(NC(=O)c4ccc(CN5CC[C@H](N(C)C)C5)c(C(F)(F)F)c4)ccc3C)cnc2[nH]1 [OR0811, N-{3-[(2-Acetyl-1H-pyrrolo[2,3-b]pyridin-5-ylamino)-methyl]-4-methyl-phenyl}-4-((S)-3-dimethylamino-pyrrolidin-1-ylmethyl)-3-trifluoromethyl-benzamide]
BRAF
  inhibition at 0.1 µM: ≥ 50%
EGFR (ErbB1)
  inhibition at 0.1 µM: ≥ 50%
FGFR2
  inhibition at 0.1 µM: ≥ 50%
KDR (VEGFR2)
  inhibition at 0.1 µM: ≥ 50%
A549 cell line; A549, 72 h
  EC50: 100 to 1000 nM
HepG2 cell line; HepG2, 72 h
  EC50: ≤ 100 nM
HuH7 cell line
  EC50: 100 to 1000 nM
HT29 cell line; HT-29, 72 h
  EC50: 100 to 1000 nM
BxPC-3 cell line; BXPC-3, 72 h
  EC50: 100 to 1000 nM
H1975 cell line; NCI-H1975, H1975, 72 hr, MTT
  EC50: ≥ 1000 nM
HUVEC
  EC50: 100 to 1000 nM
PC3 cell line
  EC50: 100 to 1000 nM
Caki-2
  EC50: 100 to 1000 nM
MDA-MB-231 cell line
  EC50: 100 to 1000 nM
HRMEC cells
  EC50: 100 to 1000 nM
HepG2 cells
  tumor growth in xenografted mice bearing human hepatocellular carcinoma tumors: significantly induced a decrease of tumor growth
HepG2 cells; mice, HepG2 xenograft, end of study vs vehicle
  Anti-tumor activity (Tumor Growth Inhibition—TGI): 75%*
